System: NOMO1
Assay: cell viability relative to DMSO control; higher = less cytotoxic
Details: 48 h
Outline: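 NOMO1 or SEM cells were plated at 500 cells/well and P12-Ichikawa cells at 1000 cells/well in 1536-well plates (5 μl), after each leukemia line had been adapted for at least four passages in each medium. Pin dosing delivered library compounds in DMSO at 11 threefold concentrations, 47 μM to 0.79 nM. CellTiter-Glo One luminescence was read after 48 h at 37°C. Viability is reported as a per-plate percentage of DMSO wells, with cell-free wells as background.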

[1] = HPLM + 10% dialyzed FBS, 0.000781 µM
[2] = HPLM + 10% dialyzed FBS, 0.00234 µM
[3] = HPLM + 10% dialyzed FBS, 0.00702 µM
[4] = HPLM + 10% dialyzed FBS, 0.0211 µM
[5] = HPLM + 10% dialyzed FBS, 0.0632 µM
[6] = HPLM + 10% dialyzed FBS, 0.19 µM
[7] = HPLM + 10% dialyzed FBS, 0.569 µM
[8] = HPLM + 10% dialyzed FBS, 1.71 µM
[9] = HPLM + 10% dialyzed FBS, 5.12 µM
[10] = HPLM + 10% dialyzed FBS, 15.4 µM
[11] = HPLM + 10% dialyzed FBS, 46.1 µM
[12] = RPMI 5 mM glucose + 10% FBS, 0.000781 µM
[13] = RPMI 5 mM glucose + 10% FBS, 0.00234 µM
[14] = RPMI 5 mM glucose + 10% FBS, 0.00702 µM
[15] = RPMI 5 mM glucose + 10% FBS, 0.0211 µM
[16] = RPMI 5 mM glucose + 10% FBS, 0.0632 µM
[17] = RPMI 5 mM glucose + 10% FBS, 0.19 µM
[18] = RPMI 5 mM glucose + 10% FBS, 0.569 µM
[19] = RPMI 5 mM glucose + 10% FBS, 1.71 µM
[20] = RPMI 5 mM glucose + 10% FBS, 5.12 µM
[21] = RPMI 5 mM glucose + 10% FBS, 15.4 µM
[22] = RPMI 5 mM glucose + 10% FBS, 46.1 µM
[23] = RPMI 5 mM glucose + 10% dialyzed FBS, 0.000781 µM
[24] = RPMI 5 mM glucose + 10% dialyzed FBS, 0.00234 µM
[25] = RPMI 5 mM glucose + 10% dialyzed FBS, 0.00702 µM
[26] = RPMI 5 mM glucose + 10% dialyzed FBS, 0.0211 µM
[27] = RPMI 5 mM glucose + 10% dialyzed FBS, 0.0632 µM
[28] = RPMI 5 mM glucose + 10% dialyzed FBS, 0.19 µM
[29] = RPMI 5 mM glucose + 10% dialyzed FBS, 0.569 µM
[30] = RPMI 5 mM glucose + 10% dialyzed FBS, 1.71 µM
[31] = RPMI 5 mM glucose + 10% dialyzed FBS, 5.12 µM
[32] = RPMI 5 mM glucose + 10% dialyzed FBS, 15.4 µM
[33] = RPMI 5 mM glucose + 10% dialyzed FBS, 46.1 µM

Row | Structure (SMILES) | cell viability [1] [%] | cell viability [2] [%] | cell viability [3] [%] | cell viability [4] [%] | cell viability [5] [%] | cell viability [6] [%] | cell viability [7] [%] | cell viability [8] [%] | cell viability [9] [%] | cell viability [10] [%] | cell viability [11] [%] | cell viability [12] [%] | cell viability [13] [%] | cell viability [14] [%] | cell viability [15] [%] | cell viability [16] [%] | cell viability [17] [%] | cell viability [18] [%] | cell viability [19] [%] | cell viability [20] [%] | cell viability [21] [%] | cell viability [22] [%] | cell viability [23] [%] | cell viability [24] [%] | cell viability [25] [%] | cell viability [26] [%] | cell viability [27] [%] | cell viability [28] [%] | cell viability [29] [%] | cell viability [30] [%] | cell viability [31] [%] | cell viability [32] [%] | cell viability [33] [%]
1 | NCCOc1cc(C(=O)Nc2cc(OCCN)c3ccccc3n2)nc(C(=O)Nc2cc(OCCN)c3ccccc3n2)c1 | 65.8 | 36.4 | 43.9 | 40.8 | 38.1 | 47.5 | 43.2 | 40.3 | 42.2 | 56.4 | 56.4 | 96 | 60.5 | 42.3 | 27 | 25.8 | 25.2 | 27.9 | 24 | 25.8 | 38.5 | 64.1 |  |  |  |  |  |  |  |  |  |  | 
2 | CC(C)(C)NCC(O)c1ccc(O)c(CO)c1 (configuration not stated) | 100 | 109 | 109 | 132 | 119 | 114 | 107 | 70.5 | 55.5 | 47.8 | 44.7 | 102 | 98.3 | 105 | 106 | 112 | 99.9 | 107 | 79.2 | 78.1 | 64.7 | 51.4 | 102 | 109 | 115 | 114 | 110 | 110 | 92.8 | 76.7 | 65.3 | 70.7 | 47
3 | CN(C)C(=O)[C@H](O)[C@H](Cc1ccccc1)NC(=O)c1cc2cc(Cl)ccc2[nH]1 | 107 | 107 | 115 | 122 | 122 | 132 | 144 | 145 | 171 | 145 | 138 | 111 | 105 | 103 | 103 | 124 | 126 | 127 | 109 | 123 | 121 | 112 | 83.9 | 109 | 109 | 109 | 113 | 115 | 132 | 133 | 118 | 136 | 126
4 | CNC(=O)c1nn(C)c2c1C(C)(C)Cc1cnc(Nc3ccc(N4CCN(C)CC4)cc3)nc1-2 | 125 | 108 | 104 | 104 | 99.7 | 113 | 103 | 65.8 | 55.6 | 47.8 | 8.74 | 111 | 114 | 103 | 107 | 115 | 111 | 100 | 86.6 | 78.8 | 48.3 | 13.2 | 113 | 102 | 107 | 106 | 118 | 108 | 103 | 75.6 | 66 | 46.8 | 8.73
5 | C[C@@H](Cc1cc2c(c(C(N)=O)c1)N(CCCO)CC2)NCCOc1ccccc1OCC(F)(F)F | 94.5 | 99.7 | 101 | 120 | 107 | 123 | 122 | 135 | 111 | 114 | 113 | 94.5 | 105 | 107 | 106 | 112 | 109 | 110 | 105 | 116 | 110 | 106 | 89.4 | 106 | 106 | 104 | 126 | 115 | 109 | 121 | 116 | 105 | 104
6 | C[S+](=O)([O-])N1CCN(Cc2cc3nc(-c4cccc5[nH]ncc45)nc(N4CCOCC4)c3s2)CC1 |  |  |  |  |  |  |  |  |  |  |  | 113 | 133 | 116 | 132 | 128 | 133 | 117 | 107 | 80.3 | 80.6 | 65.5 |  |  |  |  |  |  |  |  |  |  | 
7 | CC[C@H](C)C(=O)O[C@H]1C[C@@H](C)\C=C2\C=C/[C@H](C)[C@H](CC[C@@H]3C[C@@H](O)CC(=O)O3)[C@@H]12 | 95.9 | 103 | 100 | 108 | 96.3 | 92.8 | 90.6 | 89.9 | 93.3 | 69.4 | 53.5 | 87.5 | 89.1 | 89.7 | 98.9 | 83.5 | 90 | 88.4 | 80.5 | 86.8 | 77.1 | 71.4 | 80.3 | 93 | 84.6 | 97 | 91.7 | 91 | 91.3 | 82 | 90.7 | 77.4 | 54.9
8 | NC(=O)N1CCC(CC(=O)N2CCC([C@H]3c4ncc(Br)cc4CCc4cc(Cl)cc(Br)c43)CC2)CC1 | 113 | 109 | 126 | 118 | 117 | 110 | 114 | 122 | 90 | 90 | 53.4 | 107 | 112 | 109 | 98.5 | 104 | 103 | 99.2 | 101 | 86.2 | 80.2 | 54.1 | 109 | 113 | 123 | 112 | 118 | 112 | 94 | 104 | 95.7 | 87.6 | 69.4
9 | COc1cc2cc(c1Cl)N(C)C(=O)C[C@H](OC(=O)C(C)C)[C@]1(C)O[C@@H]1[C@H](C)[C@@H]1C[C@@](O)(NC(=O)O1)[C@H](OC)/C=C/C=C(\C)C2 | 55.5 | 53.1 | 53.3 | 44.3 | 49 | 41.8 | 42.1 | 41.8 | 34.9 | 35.7 | 13 | 32.8 | 29.5 | 33.7 | 30.8 | 27.3 | 23.5 | 24 | 19 | 22.4 | 26.4 | 9.73 | 37.2 | 40.4 | 36.2 | 32.1 | 22.9 | 22.2 | 25.4 | 22.4 | 25.9 | 27.8 | 11.8
10 | CC1(C)[C@@H](O)CC[C@@]2(C)[C@H]1CC[C@]3(C)[C@@H]2C(=O)\C=C/4[C@@H]5C[C@](C)(CC[C@]5(C)CC[C@@]34C)C(O)=O | 102 | 113 | 120 | 127 | 116 | 113 | 118 | 118 | 116 | 124 | 112 | 110 | 99.1 | 110 | 116 | 95.7 | 103 | 102 | 95 | 98.1 | 93.9 | 86.8 | 104 | 108 | 117 | 115 | 115 | 103 | 116 | 117 | 92 | 97.7 | 97.9
11 | CCC(=O)N1CCN(CC1)C2=C(C=C(C=C2)N3C(=O)\C=C/C4=C3C5=CC(=CC=C5N=C4)C6=CN=C7C=CC=CC7=C6)C(F)(F)F | 93.9 | 94.4 | 89.2 | 90.8 | 83.2 | 75 | 61.4 | 71.8 | 72.7 | 69.2 | 67 | 98 | 96.7 | 96.9 | 104 | 90.4 | 79 | 72.7 | 68.2 | 62.3 | 64 | 63.7 | 77.6 | 100 | 86.3 | 86.5 | 82.5 | 77.6 | 68.3 | 60.8 | 57.6 | 57.4 | 54.7
12 | CC[C@H]1OC(=O)[C@H](C)[C@@H](O[C@H]2C[C@@](C)(OC)[C@@H](O)[C@H](C)O2)[C@H](C)[C@@H](O[C@@H]2O[C@H](C)C[C@H](N(C)C)[C@H]2O)[C@](C)(O)C[C@@H](C)/C(=N\OCOCCOC)[C@H](C)[C@@H](O)[C@]1(C)O | 101 | 95.6 | 86 | 89.4 | 92.9 | 89.6 | 78.6 | 75.3 | 80.1 | 68.5 | 85.5 | 85.2 | 92 | 95 | 84.6 | 89.5 | 90.7 | 87.3 | 88.9 | 90.9 | 91.1 | 82 | 85.9 | 79.3 | 83.3 | 74.1 | 76.6 | 69.5 | 72.1 | 82.1 | 80.1 | 79.8 | 79.8
13 | COc1ccc(/C=C/C(=O)Nc2ccccc2C(=O)O)cc1OC | 119 | 105 | 120 | 149 | 112 | 117 | 119 | 78.8 | 120 | 73.7 | 86.9 | 108 | 111 | 108 | 109 | 114 | 110 | 105 | 95 | 112 | 92.3 | 87.5 | 104 | 114 | 118 | 94.8 | 104 | 128 | 105 | 110 | 104 | 104 | 83.8
14 | OC1CCC(CC1)N2\C=N/C3=C(C2=N)C(=C([N]3CC4=CC=CC=C4)C5=CC=CC=C5)C6=CC=CC=C6 (configuration not stated) | 115 | 133 | 121 | 144 | 142 | 130 | 130 | 93.8 | 81 | 74.9 | 9.01 |  |  |  |  |  |  |  |  |  |  |  |  |  |  |  |  |  |  |  |  |  | 

Source: the supplement of paper PMC11451515
